Experiment [1] has as its system E. coli MG1655OXA-48. In words: Bacterial susceptibility (MIC, broth microdilution) of E. coli expressing OXA-48. Type of experiment: cell-based. The settings on record: for MIC: Escherichia coli. Here is the method:
Bacterial susceptibility was specifically tested using minimum inhibitory concentration assays. Susceptibility assays were performed with E. coli strains using broth in a microplate set up. Two-fold dilutions of antibiotic and/or inhibitor were used. For susceptibility tests, bacterial strains were transformed with plasmids containing OXA-48 with its endogenous signal sequence for periplasmic migration (cloned into pTP123 vector) (Majiduddin & Palzkill, 2003, Antimicrob. Agents Chemother. 47:1062-1067). pTP123 was cut with XbaI and SacI and the linearized fragment was assembled using Gibson assembly (New England Biolabs, Ipswich, MA) its signal sequence cloned in by using Gibson assembly. Bacteria were grown in Mueller-Hinton broth with 12.5 μg/mL chloramphenicol (plasmid marker) overnight. An overnight culture was diluted 1:10^4 into the final well solutions (100 uL total) and incubated for 16-18 hours. After incubation, microplates were read using a Tecan plate reader at absorbance 600. Growth was objectively defined as yielding an absorbance ≥2 times the absorbance of the negative control (media and no culture). Experiments were repeated with new bacterial inoculums each time.
Effective β-lactamase inhibitors synergize with β-lactam antibiotics and ultimately lower the minimum inhibitory concentration (MIC) of antibiotic needed to kill the bacteria. MIC studies were performed with ampicillin (AMP), a β-lactam antibiotic readily hydrolyzed by OXA-48, against E. coli strain MG1655 expressing OXA-48 (MG1655OXA-48). The OXA-48 plasmid construct contained the endogenous signal sequence of OXA-48 for secretion to the periplasm, which was expressed under a trc-promoter, allowing leaky expression in the absence of IPTG inducer. All MICs were performed by broth microdilution with 2-fold dilutions of antibiotic and/or inhibitor (FIG. 6A). The ampicillin (AMP) and imipenem (IMP) MICs were separately determined for a range of CDD-97 and avibactam concentrations. […] In the absence of bacteria, the media (Mueller Hinton) gives an absorbance reading of 0.04 so absorbance readings greater than or equal to two-fold the control were considered bacterial growth. […] CDD-97 was tested for its synergistic ability by determining AMP MICs with a range of CDD-97 concentrations (up to 256 μg/ml).
Impermeability of the outer membrane to small molecules is a major challenge for the development of therapeutics for Gram-negative bacterial infections. β-lactamases, including OXA-48, reside in the periplasmic space and so inhibitors must traverse the outer membrane to be effective. To determine whether low permeability caused the poor in vivo activity of CDD-97, an accumulation assay (Richter, et al., 2017, Nature 545:299-304) was performed to quantify the amount of CDD-97 present in E. coli cells after incubation. In the assay, tetracycline was used as a positive control while fusidic acid and clindamycin were used as negative controls (Richter, et al., 2017, Nature 545:299-304). Controls and CDD-97 were separately incubated with wildtype E. coli (MG1655) cells and then these cells were centrifuged through silicone oil to separate free, unaccumulated compound from the cell pellet. Cell lysates were collected by freeze-thawing and analyzed by mass spectrometry to quantify the amount of accumulated compound. Compared to tetracycline, CDD-97 was present in cells at 20-fold lower levels (FIG. 6B). […] The finding that CDD-97 accumulates inefficiently across the outer membrane was also examined by adding sub-lethal concentrations of colistin to the ampicillin/CDD-97 MIC assays. Colistin is known to disrupt the outer membrane and enhance permeability in E. coli. If the outer membrane is a barrier for CDD-97, it was predicted that the addition of sub-lethal concentrations of colistin would enhance the activity of CDD-97 against E. coli. […]
A general note: Dilution methods test growth across graded concentrations, often in twofold steps.

In experiment [2] the target is OXA-48 (Klebsiella pneumoniae, UniProt Q6XEC0). In words: OXA-48 inhibition assay using nitrocefin as reporter. In kind it is biochemical. Set-up: His-tag (N, cleaved yes); made in house; host or cells: E. coli BL21(DE3), pET28a. The protocol:
Nitrocefin, a chromogenic β-lactam substrate, was used as a reporter in all inhibition assays with the various OXA enzymes and various compounds. Nitrocefin is not stable in aqueous solution long-term. For these assays, nitrocefin stocks were prepared in DMSO, stored at −20° C. and used within 2 weeks of dissolving. To avoid freeze-thawing, fresh stocks were always used. The Km of nitrocefin was determined prior to inhibition assays by performing steady state kinetics. Assays were performed using a DU800 spectrophotometer at room temperature in 50 mM HEPES pH 7.5, 15 mM NaHCO3, and 0.02% tween 20 buffer. Hydrolyzed nitrocefin was detected at 482 nm. For a single experiment, a series of at least 5 nitrocefin concentrations were tested against the given enzyme in duplicate and the initial velocities were measured and fit to the Michaelis-Menten equation. Experiments were repeated twice, and error reported is the standard error of the mean.
Compounds were tested for inhibition of a given OXA enzyme from hydrolyzing nitrocefin using a Tecan plate reader. […] A control with no compound was included in each run. For each compound concentration, the velocity of nitrocefin hydrolysis was determined at 482 nm and fit to the Morrison equation. […] The average Ki of separate experiments, each of which consisted of duplicate runs, is reported and error was quantified as the standard deviation.
The activity of these derivatives was assessed using inhibition assays with purified OXA-48. Compounds were tested for the ability to inhibit OXA-48 from hydrolyzing nitrocefin, a chromogenic β-lactam substrate routinely used in β-lactamase inhibition assays. Nitrocefin contains a conjugated ring system that is readily hydrolyzed and produces a visible color shift from yellow to red upon hydrolysis (O'Callaghan, et al., 1972, Antimicrob. Agents Chemother. 1:283-288). The rate of nitrocefin hydrolysis in the presence of a constant amount of OXA-48 and increasing concentrations of a given compound of interest was monitored at 482 nm. These rates were plotted against compound concentration to determine the inhibition constant (Ki) against OXA-48. […] SPR was performed using 6×-His-OXA-48 enzyme that was amine-coupled on a Ni-NTA Chip. Meropenem, which covalently binds and inhibits OXA-48, was used as a positive control.

“Also recorded” adds a separate entry of the source. Read-outs that look alike come from different tables or passages of the source.

OXA-48, sequence (Q6XEC0 23-265, looked up): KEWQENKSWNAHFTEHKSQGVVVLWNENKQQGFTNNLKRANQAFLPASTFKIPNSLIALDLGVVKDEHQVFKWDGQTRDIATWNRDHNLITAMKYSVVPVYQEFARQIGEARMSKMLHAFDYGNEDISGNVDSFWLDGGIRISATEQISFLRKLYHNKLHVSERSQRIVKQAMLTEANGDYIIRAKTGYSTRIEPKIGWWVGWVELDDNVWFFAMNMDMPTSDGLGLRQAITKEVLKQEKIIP

Take `CCOc1ccccc1N1CCN(c2ncnc(N3CCC(C(=O)O)CC3)n2)CC1` [CDD-97, 1-(4-(4-(2-ethoxyphenyl)piperazin-1-yl)-1,3,5-triazin-2-yl)piperidine-4-carboxylic acid]: the “synergy with β-lactam antibiotics (effect on AMP/IMP MIC) in words” value in experiment [1] (E. coli expressing OXA-48, CDD-97 up to 256 μg/mL, avibactam up to 4 μg/mL) was “did not synergize with ampicillin; also recorded: no synergy was seen between CDD-97 and imipenem; also recorded: colistin potentiates the activity of CDD-97; also recorded: synergizes weakly”. In addition, the MIC stood at 1020 µg/mL in experiment [1] (MG1655OXA48, read-out: AMP MIC, with 4 μg/mL CDD-97); 512 µg/mL in experiment [1] (MG1655OXA48, read-out: AMP MIC, with 8 μg/mL CDD-97); 512 µg/mL in experiment [1] (MG1655OXA48, read-out: AMP MIC, with 16 μg/mL CDD-97); 512 µg/mL in experiment [1] (MG1655OXA48, read-out: AMP MIC, with 32 μg/mL CDD-97); 512 µg/mL in experiment [1] (MG1655OXA48, read-out: AMP MIC, with 64 μg/mL CDD-97); 512 µg/mL in experiment [1] (MG1655OXA48, read-out: AMP MIC, with 128 μg/mL CDD-97). In addition, the MIC in experiment [1] (MG1655OXA48, read-out: AMP MIC, with 256 μg/mL CDD-97) came to 512 µg/mL; in experiment [1] (MG1655OXA48, read-out: AMP MICs, (+) CDD-97 (16 μg/mL), colistin 0 μg/mL), 1020 µg/mL; in experiment [1] (MG1655OXA48, read-out: AMP MICs, (+) CDD-97 (16 μg/mL), colistin 0.0625 μg/mL) it was 512 µg/mL; in experiment [1] (MG1655OXA48, read-out: AMP MICs, (+) CDD-97 (16 μg/mL), colistin 0.125 μg/mL) it was 1020 µg/mL; in experiment [1] (MG1655OXA48, read-out: AMP MICs, (+) CDD-97 (16 μg/mL), colistin 0.25 μg/mL), 256 µg/mL; in experiment [1] (MG1655OXA48, read-out: AMP MICs, (+) CDD-97 (16 μg/mL), colistin 0.5 μg/mL), 128 µg/mL. For the same compound, the MIC in experiment [1] (MG1655OXA48, read-out: AMP MICs, (+) CDD-97 (16 μg/mL), colistin 1 μg/mL) came to 8 µg/mL; in experiment [1] (MG1655OXA48, read-out: IMP MIC, with 4 μg/mL CDD-97), 0.625 µg/mL; in experiment [1] (MG1655OXA48, read-out: IMP MIC, with 8 μg/mL CDD-97) it was 0.312 µg/mL; in experiment [1] (MG1655OXA48, read-out: IMP MIC, with 16 μg/mL CDD-97), 0.312 µg/mL; in experiment [1] (MG1655OXA48, read-out: IMP MIC, with 32 μg/mL CDD-97), 0.312 µg/mL; in experiment [1] (MG1655OXA48, read-out: IMP MIC, with 64 μg/mL CDD-97), 0.312 µg/mL. For the same compound, the MIC in experiment [1] (MG1655OXA48, read-out: IMP MIC, with 128 μg/mL CDD-97) amounted to 0.312 µg/mL; in experiment [1] (MG1655OXA48, read-out: IMP MIC, with 256 μg/mL CDD-97), 0.625 µg/mL. The “potency/activity against OXA-48 in words” value in experiment [2] (purified OXA-48, compared with CDD-97 where a derivative) is reported as “sub-micromolar Ki”. Moreover, in experiment [2] (purified OXA-48, nitrocefin hydrolysis, Morrison fit), the Ki (as a rule, a measure of affinity in units of concentration, obtained from inhibition or displacement) turned out to be 530 ± 80 nM.

Values taken from patent publication US12286418B2, “Compounds and methods for treating or preventing bacterial infections” (priority 2019, dated 2025).
